The record followed here is patent US7807679B2, “Piperazine derivatives and their use in controlling pests” (Syngenta Crop Protection, Inc., priority 2004, dated 2010).

On to `CN(C(=O)c1ccnc(Cl)c1)c1ccccc1N1CCN(C/C=C/c2ccc(Cl)cc2)CC1` [Example 2, 2-chloro-N-(2-{4-[(E)-3-(4-chloro-phenyl)-allyl]-piperazin-1-yl}-phenyl)-N-methyl-isonicotinamide], for which the melting point was in the range of 117 to 120 °C.

As to `CN1CCN(c2cc(Cl)ccc2NC(=O)c2ccnc(Cl)c2)CC1` [Example 3, 2-Chloro-N-[4-chloro-2-(4-methyl-piperazin-1-yl)-phenyl]-isonicotinamide], the melting point fell in the range of 118 to 120 °C.

Turning to `COCCCNC(=O)Nc1ccc(F)cc1N1CCN(C/C=C/c2ccc(Cl)cc2)CC1` [Example 4, 1-(2-{4-[(E)-3-(4-chloro-phenyl)-allyl]-piperazin-1-yl}-4-fluoro-phenyl)-3-(3-methoxy-propyl)-urea], the melting point was in the range of 86 to 90 °C.

In turn, `O=C1N(Cc2cnc(Cl)s2)CCN1c1ccc(F)cc1N1CCN(C/C=C/c2ccc(Cl)cc2)CC1` [Example 5, 1-(2-{4-[(E)-3-(4-Chloro-phenyl)-allyl]-piperazin-1-yl}-4-fluoro-phenyl)-3-(2-chloro-thiazol-5-ylmethyl)-imidazolidin-2-one] had a melting point of 72 to 77 °C.

As to `O=C(Nc1cnc(Cl)nc1N1CCN(C/C=C/c2ccc(OC(F)(F)F)cc2)CC1)c1ccnc(Cl)c1` [Example 7, 2-chloro-N-(2-chloro-4-{4-[(E)-3-(4-trifluoromethoxy-phenyl)-allyl]-piperazin-1-yl}-pyrimidin-5-yl)-isonicotinamide], the melting point lay within 210 to 211 °C.

`Cc1nn(C)c(N2CCN(C/C=C/c3ccc(Cl)cc3)CC2)c1NC(=O)c1ccnc(Cl)c1` [Example 8, 2-Chloro-N-(5-{4-[(E)-3-(4-chloro-phenyl)-allyl]-piperazin-1-yl}-1,3-dimethyl-1H-pyrazol-4-yl)-isonicotinamide] gave a melting point of 85 to 88 °C.

With `O=C(Nc1c(Cl)cc(Cl)cc1N1CCN(C/C=C/c2ccc(Cl)cc2)CC1)c1ccnc(Cl)c1` [Example 10, 2-chloro-N-(2-{4-[(E)-3-(4-chloro-phenyl)-allyl]-piperazin-1-yl}-4,6-dichloro-phenyl)-isonicotinamide], the melting point lay in the range of 79 to 80 °C.

The term melting point denotes the temperature, or range, at which the solid turns liquid.
